In general, pEC50 refers to −log10 of the EC50, conventionally taken in molar units. Low readings indicate a high EC50, high ones a low EC50.

pEC50: −log10 of the molar value.

This assay deals with AMPK. Put plainly: AMPK activation, enzyme-linked immunosorbent assay. The conditions noted are these: EC50 for AMPK activation, ELISA. Format: biochemical. In a few lines:
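Compounds were tested for their capacity to activate the kinase using standard, commercially available kit reagents and procedures.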
`CC(C)(C)OC(=O)NCCCc1cc(C(=O)N2CCN(Cc3ccc(F)cc3)CC2)cnc1C(=O)NC1CCN(Cc2ccc(C#N)cc2)CC1` [Compound 290, tert-butyl 3-(2-(1-(4-cyanobenzyl)piperidin-4-ylcarbamoyl)-5-(4-(4-fluorobenzyl)piperazine-1-carbonyl)pyridin-3-yl)propylcarbamate] gave a pEC50 above 6.30.
For the compound `O=C(c1ccc(C(=O)N2CCN(CCc3ccccc3)CC2)nc1)N1CCN(c2ccccc2)CC1` [Compound 90, (4-phenethylpiperazin-1-yl)(5-(4-phenylpiperazine-1-carbonyl)pyridin-2-yl)methanone], the pEC50 is below 5.00.
In the case of `COc1cccc(OC2CCCN(C(=O)c3ccc(C(=O)NC4CCN(Cc5ccc(C#N)cc5)CC4)nc3)C2)c1` (centres unmarked) [Compound 277, N-(1-(4-cyanobenzyl)piperidin-4-yl)-5-(3-(3-methoxyphenoxy)piperidine-1-carbonyl)picolinamide], the pEC50 is above 6.30.
`N#Cc1ccc(CN2CCC(NC(=O)c3ccc(C(=O)NC4CCN(Cc5ccc(C#N)cc5)CC4)nn3)CC2)cc1` [Compound 386, N3,N6-bis(1-(4-cyanobenzyl)piperidin-4-yl)pyridazine-3,6-dicarboxamide] gave a negative logarithm of the EC50 (pEC50) below 5.00.
`CS(=O)(=O)c1ccc(OC2CCN(C(=O)c3ccc(C(=O)Nc4ccc(S(=O)(=O)c5ccc(F)cc5)nc4)nc3)CC2)cc1` [Compound 261, N-(6-(4-fluorophenylsulfonyl)pyridin-3-yl)-5-(4-(4-(methylsulfonyl)phenoxy)piperidine-1-carbonyl)picolinamide] showed a negative logarithm of the EC50 (pEC50) above 6.30.
Compound `N#Cc1ccc(CN2CCC(NC(=O)c3ccc(C(=O)N4CCC(Oc5ccc(C(F)(F)F)cc5)CC4)cn3)CC2)cc1` [Compound 157, N-(1-(4-cyanobenzyl)piperidin-4-yl)-5-(4-(4-(trifluoromethyl)phenoxy)piperidine-1-carbonyl)picolinamide] showed a pEC50 above 6.30.
The compound `N#Cc1ccc(CN2CCC(NC(=O)c3ccc(C(=O)N4CCC(C(=O)c5ccc(N6CCCC6)cc5)CC4)cn3)CC2)cc1` [Compound 365, N-(1-(4-cyanobenzyl)piperidin-4-yl)-5-(4-(4-(pyrrolidin-1-yl)benzoyl)piperidine-1-carbonyl)picolinamide] gave a negative logarithm of the EC50 (pEC50) above 6.30.
Take `CC(C)Oc1ccc(CN2CCC(NC(=O)c3ccc(C(=O)N4CCC(C(=O)c5ccc(N6CCCC6)cc5)CC4)nc3)CC2)cc1` [Compound 446, N-(1-(4-isopropoxybenzyl)piperidin-4-yl)-6-(4-(4-(pyrrolidin-1-yl)benzoyl)piperidine-1-carbonyl)nicotinamide]: the negative logarithm of the EC50 (pEC50) is above 6.30.
For the compound `CC(=O)Nc1ccc(OC2CCN(C(=O)c3ccc(C(=O)NC4CCN(Cc5ccc(C#N)cc5)CC4)cn3)CC2)cc1` [Compound 366, 6-(4-(4-acetamidophenoxy)piperidine-1-carbonyl)-N-(1-(4-cyanobenzyl)piperidin-4-yl)nicotinamide], the pEC50 was above 6.30.
With `N#Cc1ccc(CN2CCC(NC(=O)c3ccc(C(=O)N4CCN(C5CCOCC5)CC4)cn3)CC2)cc1` [Compound 83, N-(1-(4-cyanobenzyl)piperidin-4-yl)-5-(4-(tetrahydro-2H-pyran-4-yl)piperazine-1-carbonyl)picolinamide], the pEC50 is below 5.00.
Turning to `CC1(C)CN(C(=O)c2ccc(C(=O)NC3CCN(Cc4ccc(C#N)cc4)CC3)nc2)CCN1Cc1ccc(F)cc1` [Compound 125, N-(1-(4-cyanobenzyl)piperidin-4-yl)-5-(4-(4-fluorobenzyl)-3,3-dimethylpiperazine-1-carbonyl)picolinamide], the negative logarithm of the EC50 (pEC50) is above 6.30.
Compound `CN(C)c1ccc(OC2CCN(C(=O)c3ccc(C(=O)NC4CCN(Cc5ccc(C#N)cc5)CC4)cn3)CC2)cc1` [Compound 370, N-(1-(4-cyanobenzyl)piperidin-4-yl)-6-(4-(4-(dimethylamino)phenoxy)piperidine-1-carbonyl)nicotinamide] had a negative-log EC50 (pEC50) above 6.30.
For the compound `N#Cc1ccc(CN2CCC(NC(=O)c3ccc(C(=O)N4CCC(C(F)c5ccc(F)cc5)CC4)cn3)CC2)cc1` (centres unmarked) [Compound 138, N-(1-(4-cyanobenzyl)piperidin-4-yl)-5-(4-(fluoro(4-fluorophenyl)methyl)piperidine-1-carbonyl)picolinamide], the negative-log EC50 (pEC50) was above 6.30.
As to `COc1ccc(CN2CCC(NC(=O)c3ccc(C(=O)N4CCN(Cc5ccc(C#N)cc5)CC4)cn3)CC2)cc1` [Compound 285, 5-(4-(4-cyanobenzyl)piperazine-1-carbonyl)-N-(1-(4-methoxybenzyl)piperidin-4-yl)picolinamide], the pEC50 is above 6.30.
With `COc1ccc(C(=O)C2CCN(C(=O)c3ccc(C(=O)NC4CCN(Cc5ccc(N6CCCC6)cc5)CC4)nc3)CC2)cc1` [Compound 194, 5-(4-(4-methoxybenzoyl)piperidine-1-carbonyl)-N-(1-(4-(pyrrolidin-1-yl)benzyl)piperidin-4-yl)picolinamide] the figure was above 6.30.
With `N#Cc1ccc(CN2CCC(NC(=O)c3cnc(C(=O)N4CCC(Oc5ccc(C(F)(F)F)cc5)CC4)cn3)CC2)cc1` [Compound 212, N-(1-(4-cyanobenzyl)piperidin-4-yl)-5-(4-(4-(trifluoromethyl)phenoxy)piperidine-1-carbonyl)pyrazine-2-carboxamide], the pEC50 was above 6.30.
With `O=C(NC1CCN(Cc2ccc(F)cc2)CC1)c1cccc(C(=O)NC2CCN(Cc3ccc(F)cc3)CC2)n1` [Compound 87, N2,N6-bis(1-(4-fluorobenzyl)piperidin-4-yl)pyridine-2,6-dicarboxamide] the figure was 5.30 to 6.00.
Regarding `COc1ccc(CN2CCC(NC(=O)c3ccc(C(=O)N4CCC(C(=O)c5ccc(F)cc5F)CC4)nc3)CC2)cc1` [Compound 347, 6-(4-(2,4-difluorobenzoyl)piperidine-1-carbonyl)-N-(1-(4-methoxybenzyl)piperidin-4-yl)nicotinamide], the pEC50 was above 6.30.
In the case of `CC(=O)c1ccc(OC2CCN(C(=O)c3ccc(C(=O)NC4CCN(Cc5ccc(F)cc5)CC4)cn3)CC2)cc1` [Compound 391, 6-(4-(4-acetylphenoxy)piperidine-1-carbonyl)-N-(1-(4-fluorobenzyl)piperidin-4-yl)nicotinamide] it was above 6.30; in that of `N#Cc1ccc(CN2CCC(NC(=O)c3ccc(C(=O)N4CCN(S(=O)(=O)c5ccc(F)cc5)CC4)cn3)CC2)cc1` [Compound 78, N-(1-(4-cyanobenzyl)piperidin-4-yl)-5-(4-(4-fluorophenylsulfonyl)piperazine-1-carbonyl)picolinamide], above 6.30.
`COc1ccc(-c2ccc(Nc3ccc(C(=O)NC4CCN(Cc5ccccc5)CC4)nc3)cc2)cc1` [Compound 120, N-(1-benzylpiperidin-4-yl)-5-(4′-methoxybiphenyl-4-ylamino)picolinamide] had a pEC50 below 5.00.
In the case of `O=C(c1ccc(N2CCC(Oc3ccc(C(F)(F)F)cc3)CC2)nc1)N1CCN(Cc2ccc(F)cc2)CC1` [Compound 187, (4-(4-fluorobenzyl)piperazin-1-yl)(6-(4-(4-(trifluoromethyl)phenoxy)piperidin-1-yl)pyridin-3-yl)methanone] it was 5.30 to 6.00; in that of `N#Cc1ccc(CN2CCC(NC(=O)c3ccc(N4CCC(Oc5ccc(C#N)cc5)CC4)nn3)CC2)cc1` [Compound 351, N-(1-(4-cyanobenzyl)piperidin-4-yl)-6-(4-(4-cyanophenoxy)piperidin-1-yl)pyridazine-3-carboxamide], above 6.30; in that of `O=C(NC1CCN(Cc2ccccc2)CC1)c1ccc(Nc2cccc(Oc3ccccc3)c2)cn1` [Compound 112, N-(1-benzylpiperidin-4-yl)-5-(3-phenoxyphenylamino) picolinamide], 5.30 to 6.00.
As for `O=C(NCc1ccccc1)c1ccc(C(=O)N2CCN(Cc3ccc(F)cc3)CC2)cn1` [Compound 115, N-benzyl-5-(4-(4-fluorobenzyl)piperazine-1-carbonyl)picolinamide], the pEC50 is 5.00 to 5.30.
Take `CC(C)S(=O)(=O)c1ccc(N2CCN(C(=O)c3ccc(C(=O)NC4CCN(Cc5ccc(C#N)cc5)CC4)nc3)CC2)cc1` [Compound 251, N-(1-(4-cyanobenzyl)piperidin-4-yl)-5-(4-(4-(isopropylsulfonyl)phenyl)piperazine-1-carbonyl)picolinamide]: the negative logarithm of the EC50 (pEC50) is above 6.30.
With `COc1ccc(CN2CCC(NC(=O)c3ccc(C(=O)N4CCC(C(=O)c5ccc(F)c(F)c5)CC4)cn3)CC2)cc1` [Compound 329, 5-(4-(3,4-difluorobenzoyl)piperidine-1-carbonyl)-N-(1-(4-methoxybenzyl)piperidin-4-yl)picolinamide] the figure was above 6.30.
`O=C(NC1CCN(Cc2cc(F)cc(F)c2)CC1)c1ccc(C(=O)N2CCC(Oc3ccc(C(F)(F)F)cc3)CC2)cn1` [Compound 294, N-(1-(3,5-difluorobenzyl)piperidin-4-yl)-5-(4-(4-(trifluoromethyl)phenoxy)piperidine-1-carbonyl)picolinamide] had a negative-log EC50 (pEC50) above 6.30.
As to `CSc1ccc(C(=O)C2CCN(C(=O)c3ccc(C(=O)NC4CCN(Cc5ccc(C#N)cc5)CC4)nc3)CC2)cc1` [Compound 372, N-(1-(4-cyanobenzyl)piperidin-4-yl)-5-(4-(4-(methylthio)benzoyl)piperidine-1-carbonyl)picolinamide], the pEC50 was above 6.30.
With `N#Cc1ccc(OC2CCN(C(=O)c3ccc(C(=O)NC4CCNCC4)cn3)CC2)cc1` [Compound 335, 6-(4-(4-cyanophenoxy)piperidine-1-carbonyl)-N-(piperidin-4-yl)nicotinamide], the pEC50 was below 5.00.
Regarding `O=C(NC1CCN(Cc2ccc(F)cc2)CC1)c1ccc(C(=O)N2CCC(Oc3cccc(NC(=O)C4CC4)c3)CC2)nc1` [Compound 432, 6-(4-(3-(cyclopropanecarboxamido)phenoxy)piperidine-1-carbonyl)-N-(1-(4-fluorobenzyl)piperidin-4-yl)nicotinamide], the negative-log EC50 (pEC50) is 6.00 to 6.30.
In the case of `COc1ccc(N2CCC(NC(=O)c3ccc(C(=O)N4CCC(Oc5ccc(C#N)cc5)CC4)nc3)CC2)cc1` [Compound 423, 6-(4-(4-cyanophenoxy)piperidine-1-carbonyl)-N-(1-(4-methoxyphenyl)piperidin-4-yl)nicotinamide], the negative-log EC50 (pEC50) was above 6.30.

The record behind these values is patent publication US9663496B2, “AMPK-activating heterocyclic compounds and methods for using the same” (Rigel Pharmaceuticals, Inc., priority 2010, dated 2017).
